From ChEMBL document CHEMBL5678818, “Discovery of potent SOS1 inhibitors that block RAS activation via disruption of the RAS-SOS1 interaction” (Proc Natl Acad Sci U S A, 2019)

Columns and labels:
[1] = biological target: T1, Mitogen-activated protein kinase kinase kinase 6 (Homo sapiens) (UniProt O95382); experiment: Inhibition of ASK2 (unknown origin) assessed as residual activity at 100 nM by KINOMEscan analysis relative to control
T1 sequence (whole entry): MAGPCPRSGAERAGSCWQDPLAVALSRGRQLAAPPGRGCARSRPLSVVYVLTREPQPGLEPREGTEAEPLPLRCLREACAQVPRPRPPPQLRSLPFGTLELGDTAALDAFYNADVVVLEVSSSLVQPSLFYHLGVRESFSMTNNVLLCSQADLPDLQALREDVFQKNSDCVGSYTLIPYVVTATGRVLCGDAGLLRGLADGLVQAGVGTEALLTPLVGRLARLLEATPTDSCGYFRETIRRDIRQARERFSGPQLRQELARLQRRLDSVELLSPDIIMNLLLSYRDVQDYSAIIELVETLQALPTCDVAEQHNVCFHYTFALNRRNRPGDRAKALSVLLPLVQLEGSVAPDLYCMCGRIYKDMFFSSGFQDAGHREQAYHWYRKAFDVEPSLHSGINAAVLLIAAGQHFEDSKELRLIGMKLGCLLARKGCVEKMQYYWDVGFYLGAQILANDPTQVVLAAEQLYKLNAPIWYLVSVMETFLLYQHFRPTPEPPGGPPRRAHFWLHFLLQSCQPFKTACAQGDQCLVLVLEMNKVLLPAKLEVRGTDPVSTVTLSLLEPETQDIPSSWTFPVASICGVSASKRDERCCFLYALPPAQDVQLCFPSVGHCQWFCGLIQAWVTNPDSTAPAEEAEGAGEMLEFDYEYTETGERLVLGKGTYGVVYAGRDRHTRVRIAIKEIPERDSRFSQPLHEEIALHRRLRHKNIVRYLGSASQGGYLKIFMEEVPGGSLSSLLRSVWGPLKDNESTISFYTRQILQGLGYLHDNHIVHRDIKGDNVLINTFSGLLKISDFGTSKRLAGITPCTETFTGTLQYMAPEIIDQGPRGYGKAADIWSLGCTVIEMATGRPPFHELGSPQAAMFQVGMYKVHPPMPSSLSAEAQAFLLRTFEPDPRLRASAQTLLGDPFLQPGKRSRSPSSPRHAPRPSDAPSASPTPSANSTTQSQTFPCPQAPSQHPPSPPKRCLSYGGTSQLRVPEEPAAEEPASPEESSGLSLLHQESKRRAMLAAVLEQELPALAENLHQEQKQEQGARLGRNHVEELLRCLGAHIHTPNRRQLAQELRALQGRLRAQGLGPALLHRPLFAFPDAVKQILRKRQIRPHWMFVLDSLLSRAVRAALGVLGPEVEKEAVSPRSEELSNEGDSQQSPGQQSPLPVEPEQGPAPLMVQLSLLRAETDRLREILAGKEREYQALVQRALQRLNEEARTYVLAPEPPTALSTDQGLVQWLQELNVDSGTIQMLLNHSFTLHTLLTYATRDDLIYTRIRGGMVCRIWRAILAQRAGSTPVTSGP

[2] = biological target: Calcium/calmodulin-dependent protein kinase type 1 (Homo sapiens) (UniProt Q14012); experiment: Inhibition of CAMK1 (unknown origin) assessed as residual activity at 100 nM by KINOMEscan analysis relative to control
Calcium/calmodulin-dependent protein kinase type 1 (Homo sapiens), sequence (Q14012 whole entry, looked up): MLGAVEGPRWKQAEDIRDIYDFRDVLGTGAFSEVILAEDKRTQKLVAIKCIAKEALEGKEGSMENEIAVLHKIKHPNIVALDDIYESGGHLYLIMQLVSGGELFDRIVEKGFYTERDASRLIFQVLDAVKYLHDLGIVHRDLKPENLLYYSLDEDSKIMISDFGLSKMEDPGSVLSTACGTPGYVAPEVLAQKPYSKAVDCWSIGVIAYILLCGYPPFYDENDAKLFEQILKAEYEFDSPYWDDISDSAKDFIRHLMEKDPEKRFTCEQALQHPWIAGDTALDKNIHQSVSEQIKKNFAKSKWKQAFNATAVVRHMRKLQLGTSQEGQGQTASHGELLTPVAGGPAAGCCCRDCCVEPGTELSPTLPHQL

[3] = biological target: Serine/threonine-protein kinase 10 (Homo sapiens) (UniProt O94804); experiment: Inhibition of LOK (unknown origin) assessed as residual activity at 100 nM by KINOMEscan analysis relative to control
Serine/threonine-protein kinase 10 (Homo sapiens), sequence (O94804 whole entry, looked up, canonical isoform): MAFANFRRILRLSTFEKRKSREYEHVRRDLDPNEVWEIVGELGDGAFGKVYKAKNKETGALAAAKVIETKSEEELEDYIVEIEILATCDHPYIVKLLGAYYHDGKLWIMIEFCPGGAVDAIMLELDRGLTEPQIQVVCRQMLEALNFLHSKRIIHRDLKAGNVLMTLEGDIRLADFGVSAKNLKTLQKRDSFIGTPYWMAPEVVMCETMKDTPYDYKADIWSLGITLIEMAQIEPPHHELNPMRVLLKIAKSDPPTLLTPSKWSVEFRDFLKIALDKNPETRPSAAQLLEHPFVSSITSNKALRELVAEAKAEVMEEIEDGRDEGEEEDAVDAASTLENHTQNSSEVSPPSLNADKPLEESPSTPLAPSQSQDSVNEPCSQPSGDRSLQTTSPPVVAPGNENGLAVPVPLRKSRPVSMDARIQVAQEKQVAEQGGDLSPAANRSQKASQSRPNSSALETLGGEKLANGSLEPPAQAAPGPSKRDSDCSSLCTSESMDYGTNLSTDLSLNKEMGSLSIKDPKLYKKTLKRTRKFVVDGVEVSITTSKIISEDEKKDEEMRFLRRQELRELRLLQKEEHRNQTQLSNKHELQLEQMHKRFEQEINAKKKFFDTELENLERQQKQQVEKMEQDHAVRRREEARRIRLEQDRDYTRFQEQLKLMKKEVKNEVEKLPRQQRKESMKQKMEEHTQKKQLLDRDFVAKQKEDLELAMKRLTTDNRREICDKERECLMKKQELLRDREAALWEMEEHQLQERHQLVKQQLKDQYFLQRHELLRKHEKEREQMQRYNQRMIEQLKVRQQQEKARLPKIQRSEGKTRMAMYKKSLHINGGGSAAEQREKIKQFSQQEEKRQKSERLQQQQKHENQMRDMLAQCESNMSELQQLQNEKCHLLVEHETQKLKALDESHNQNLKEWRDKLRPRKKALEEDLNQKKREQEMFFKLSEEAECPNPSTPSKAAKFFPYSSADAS

[4] = system: Phosphatidylinositol 4,5-bisphosphate 3-kinase catalytic subunit alpha isoform (Homo sapiens), P42336 [E542K]; experiment: Inhibition of PIK3CA E542K mutant (unknown origin) assessed as residual activity at 100 nM by KINOMEscan analysis relative to control
Phosphatidylinositol 4,5-bisphosphate 3-kinase catalytic subunit alpha isoform (Homo sapiens), P42336 [E542K], sequence (P42336 whole entry E542K, canonical isoform): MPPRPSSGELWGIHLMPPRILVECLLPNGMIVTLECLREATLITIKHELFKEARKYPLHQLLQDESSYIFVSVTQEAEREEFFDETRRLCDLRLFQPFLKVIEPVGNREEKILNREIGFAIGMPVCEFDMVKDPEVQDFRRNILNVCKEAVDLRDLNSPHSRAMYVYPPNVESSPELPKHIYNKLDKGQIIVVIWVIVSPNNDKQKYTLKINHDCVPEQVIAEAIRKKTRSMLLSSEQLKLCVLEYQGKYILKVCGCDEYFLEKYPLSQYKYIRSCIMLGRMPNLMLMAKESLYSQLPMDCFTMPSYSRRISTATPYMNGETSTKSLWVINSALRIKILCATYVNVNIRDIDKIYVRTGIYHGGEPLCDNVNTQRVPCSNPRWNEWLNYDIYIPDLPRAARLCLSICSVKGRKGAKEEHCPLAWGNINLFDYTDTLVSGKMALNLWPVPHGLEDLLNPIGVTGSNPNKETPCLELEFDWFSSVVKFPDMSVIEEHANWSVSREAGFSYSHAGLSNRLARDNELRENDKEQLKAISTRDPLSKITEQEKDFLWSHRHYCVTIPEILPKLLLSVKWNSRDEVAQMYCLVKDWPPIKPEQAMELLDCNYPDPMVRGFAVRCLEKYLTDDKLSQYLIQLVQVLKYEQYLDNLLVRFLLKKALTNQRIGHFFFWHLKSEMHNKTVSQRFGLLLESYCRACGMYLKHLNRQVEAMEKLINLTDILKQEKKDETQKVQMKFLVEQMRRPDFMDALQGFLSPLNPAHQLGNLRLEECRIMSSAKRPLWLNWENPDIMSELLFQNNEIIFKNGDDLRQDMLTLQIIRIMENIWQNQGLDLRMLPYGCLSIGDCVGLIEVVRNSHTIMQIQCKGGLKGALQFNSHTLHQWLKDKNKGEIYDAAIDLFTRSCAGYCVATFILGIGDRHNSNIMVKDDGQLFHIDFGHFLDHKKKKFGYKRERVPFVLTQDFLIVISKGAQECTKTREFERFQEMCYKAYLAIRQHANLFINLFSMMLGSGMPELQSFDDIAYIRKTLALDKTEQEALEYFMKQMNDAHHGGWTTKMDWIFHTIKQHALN

[5] = biological target: Ribosomal protein S6 kinase alpha-4 (Homo sapiens) (UniProt O75676); experiment: Inhibition of N-terminal RPS6KA4 […] domain 1 (unknown origin) assessed as residual activity at 100 nM by KINOMEscan analysis relative to control
Ribosomal protein S6 kinase alpha-4 (Homo sapiens), sequence (O75676 whole entry, looked up): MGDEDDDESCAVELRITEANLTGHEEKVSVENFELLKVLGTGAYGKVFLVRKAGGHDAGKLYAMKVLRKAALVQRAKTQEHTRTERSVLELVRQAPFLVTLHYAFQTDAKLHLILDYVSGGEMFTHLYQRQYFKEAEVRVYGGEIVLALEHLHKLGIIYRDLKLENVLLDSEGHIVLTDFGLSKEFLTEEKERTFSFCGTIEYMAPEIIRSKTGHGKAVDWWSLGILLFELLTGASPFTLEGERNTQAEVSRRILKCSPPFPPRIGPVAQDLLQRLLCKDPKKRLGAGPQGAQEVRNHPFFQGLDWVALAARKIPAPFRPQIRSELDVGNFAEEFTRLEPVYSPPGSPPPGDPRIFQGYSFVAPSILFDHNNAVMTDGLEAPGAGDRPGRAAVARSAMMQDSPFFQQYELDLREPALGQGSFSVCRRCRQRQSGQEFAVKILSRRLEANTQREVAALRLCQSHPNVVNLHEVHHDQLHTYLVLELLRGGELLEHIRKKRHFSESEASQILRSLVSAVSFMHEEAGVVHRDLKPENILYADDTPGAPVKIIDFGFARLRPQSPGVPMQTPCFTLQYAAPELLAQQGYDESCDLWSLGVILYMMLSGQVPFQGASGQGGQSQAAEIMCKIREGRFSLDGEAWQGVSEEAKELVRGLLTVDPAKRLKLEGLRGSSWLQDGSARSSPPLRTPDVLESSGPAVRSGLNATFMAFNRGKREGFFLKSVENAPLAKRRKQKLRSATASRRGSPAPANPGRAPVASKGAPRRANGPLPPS

[6] = biological target: Tyrosine-protein kinase Tec (Homo sapiens) (UniProt P42680); experiment: Inhibition of TEC (unknown origin) assessed as residual activity at 100 nM by KINOMEscan analysis relative to control
Tyrosine-protein kinase Tec (Homo sapiens), sequence (P42680 whole entry, looked up): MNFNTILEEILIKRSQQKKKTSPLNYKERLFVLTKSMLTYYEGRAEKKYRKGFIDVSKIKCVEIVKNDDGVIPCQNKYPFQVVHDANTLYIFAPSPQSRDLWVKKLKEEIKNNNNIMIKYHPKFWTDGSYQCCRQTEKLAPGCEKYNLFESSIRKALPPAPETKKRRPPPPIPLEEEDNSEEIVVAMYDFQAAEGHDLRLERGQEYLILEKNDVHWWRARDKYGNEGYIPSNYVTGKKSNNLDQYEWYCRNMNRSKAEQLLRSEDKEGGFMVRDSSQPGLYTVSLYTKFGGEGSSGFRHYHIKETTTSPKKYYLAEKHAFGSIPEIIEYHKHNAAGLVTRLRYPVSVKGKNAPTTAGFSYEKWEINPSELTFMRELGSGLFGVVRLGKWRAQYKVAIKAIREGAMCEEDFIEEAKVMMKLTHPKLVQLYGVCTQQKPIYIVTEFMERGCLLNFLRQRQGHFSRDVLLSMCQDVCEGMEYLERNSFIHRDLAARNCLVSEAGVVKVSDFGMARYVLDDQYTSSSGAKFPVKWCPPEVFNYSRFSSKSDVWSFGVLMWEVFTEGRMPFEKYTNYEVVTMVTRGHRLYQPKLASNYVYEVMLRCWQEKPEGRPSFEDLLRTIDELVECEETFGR

## COc1cc2ncnc(N[C@H](C)c3cccc4ccccc34)c2cc1OC
[1]
  Activity: 71%
[2]
  Activity: 100%
[3]
  Activity: 98%
[4]
  Activity: 74%
[5]
  Activity: 100%
[6]
  Activity: 87%
